Counter-ions that a name gives are not always drawn.

Consider 13 molecules from patent US4348410A, “Cyclohexane carboxylic acid derivatives” (Nippon Chemiphar Co., Ltd., priority 1979, dated 1982).

For one test, the target named is urokinase (Homo sapiens, UniProt P00749). Nature of the test: Inhibitory effects on urokinase (hydrolysis of N-acetylglycyl lysine methyl ester). In kind it is biochemical. To be noted: for Inhibition (%) Urokinase: 37° C., 10 minutes, concentration not given; for inhibition at 100 µM: 0.1 mM, read-out: inhibited hydrolytic activity by urokinase. The procedure: The compounds of the formula (I) have excellent inhibitory effects on protease. The inhibitory effects were determined by the following methods: Inhibitory effects of the compounds on urokinase were determined according to the method described by A. J. Joeson et al (Throm. […]. 21, 259-272 (1969)). In particular, inhibitory effects of the compounds on hydrolysis of N-acetylglycyl lysine methyl ester by urokinase were determined (incubated at 37° C. for 10 minutes).

Another test has as its target thrombin (Bos taurus, UniProt P00735). Nature of the test: Inhibitory effects on thrombin (hydrolysis of p-tosylarginine methyl ester). The note with it: for Inhibition (%) Thrombin: 37° C., 10 minutes, concentration not given. In kind it is biochemical. Here is the method:
The compounds of the formula (I) have excellent inhibitory effects on protease. The inhibitory effects were determined by the following methods:
Inhibitory effects of the compounds on thrombin were determined according to the method described by M. Muramatsu et al (The Journal of Biochemistry, Volume 65 (1), 17 (1969)). In particular, inhibitory effects of the compounds on hydrolysis of p-tosylarginine methyl ester by thrombin were examined (incubated at 37° C. for 10 minutes).

For another test, the target named is chymotrypsin (Bos taurus, UniProt P00766). The test can be described thus: Inhibitory effects on chymotrypsin (hydrolysis of N-acetyl-L-tyrosine ethyl ester). In kind it is biochemical. To be noted: for Inhibition (%) Chymotrypsin: 37° C., 10 minutes, concentration not given. Here is the method:
The compounds of the formula (I) have excellent inhibitory effects on protease. The inhibitory effects were determined by the following methods: Inhibitory effects on the compounds of chymotrypsin were determined according to the method described by M. […] In particular, inhibitory effects of the compounds on hydrolysis of N-acetyl-L-tyrosine ethyl ester by chymotrypsin were examined (incubated at 37° C. for 10 minutes).

The target in a further test is T1, trypsin (Bos taurus, UniProt P00760).
T1 sequence (P00760 24-246): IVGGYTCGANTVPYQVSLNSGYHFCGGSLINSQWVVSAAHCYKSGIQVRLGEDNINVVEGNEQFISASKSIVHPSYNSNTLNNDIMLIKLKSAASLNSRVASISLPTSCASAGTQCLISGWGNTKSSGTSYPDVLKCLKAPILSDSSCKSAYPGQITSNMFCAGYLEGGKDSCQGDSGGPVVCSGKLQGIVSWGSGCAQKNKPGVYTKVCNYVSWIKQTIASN
Nature of the test: Inhibitory effects on trypsin (hydrolysis of p-tosylarginine methyl ester). To be noted: for Inhibition (%) Trypsin: 37° C., 10 minutes, concentration not given. In kind it is biochemical. The procedure: In particular, inhibitory effects of the compounds on hydrolysis of p-tosylarginine methyl ester by trypsin were examined (incubated at 37° C. for 10 minutes).

Another test deals with gastric secretion. The test can be described thus: Influence to the gastric secretion (pylorus ligation). To be noted: 12.5 mg/kg i.p. In kind it is in vivo, Male Sprague-Dawley strain rats. The procedure: Male Sprague-Dawley strain rats, weighing 160-180 g were deprived of food but allowed free access to water for 20 hours prior to experiment. […] The test drug was given intraperitoneally immediately after pylorus ligation. The rats were sacrificed 3, 6 and 12 hours later and the stomachs removed. The gastric juice was collected and analyzed for volume. Then the gastric juice was centrifuged at 1300 g for 10 minutes at room temperature to give the supernatant. The total acidity and peptic activity of the supernatant were determined. Total acidity was determined by titrating with 0.01 N NaOH. […] Total acidity is shown as the titration volume (ml) and peptic activity is shown as the corresponding weight (mg) to crystal pepsin.

The test system of another test is Shay ulcers. The test can be described thus: Shay ulcers (pylorus ligation). In kind it is in vivo, Male Sprague-Dawley strain rats. The note with it: 12.5 mg/kg i.p. Here is the method:
The rats were sacrificed 18 hours later by an overdose of ether and the stomach removed. The stomach was incised along the greater curvature and the surface area of each lesion in forestomach was measured by the naked eye. […] 4=many ulcers of marked size 5=perforated ulcer The test drugs were given intraperitoneally, immediately after pylorus ligation.

Another test relates to acetic acid ulcers. Nature of the test: Acetic acid ulcers. To be noted: for Ulcer Grade 1 (number of rats): ulcer area 0-10 mm^2; for Ulcer Grade 2 (number of rats): ulcer area 11-20 mm^2; for Ulcer Grade 3 (number of rats): ulcer area 21-30 mm^2; for Ulcer Grade 4 (number of rats): ulcer area 31-40 mm^2; for Ulcer Grade 5 (number of rats): ulcer area >40 mm^2. In kind it is in vivo, Male Sprague-Dawley strain rats. The procedure:
Male Sprague-Dawley strain rats, weighing about 200 g were used. Under ether anesthesia 10% acetic acid solution (0.05 ml) was injected carefully between the serous membrane and the muscle near the pylorus, and the abdomen was closed. Thereafter, the animals were maintained under conditions and administered 1 ml/100 g of each test drug dissolved or suspended in 0.5% carboxymethylcellulose solution p.o. daily×10 starting from the next day of the operation. On the 11th day, the rats were sacrificed under ether anesthesia, and the stomachs were removed. The area of the ulcer was measured and graded into 5 degrees as an ulcer index according to the following method: […]

Take `CCOC(=O)c1ccc(OC(=O)[C@H]2CC[C@H](CNC(=N)N)CC2)cc1` [Compound 6]: the “Inhibition (%) Urokinase” value at urokinase was 50%. Moreover, the “Inhibition (%) Thrombin” value at thrombin worked out at 39%. Also, the “Inhibition (%) Chymotrypsin” value on chymotrypsin amounted to 70%. For the same molecule, the “Inhibition (%) Trypsin” value at trypsin is 25%.
The matching figures for `Cl.N=C(N)NC[C@H]1CC[C@H](C(=O)Oc2cccnc2)CC1` [Compound 7, 3pyridyl trans4-guanidinomethylcyclohexanecarboxylate hydrochloride]: 67%, 32%, 70% and 23%.
On to `CC(=O)c1ccccc1OC(=O)[C@H]1CC[C@H](CNC(=N)N)CC1` [Example 23, 2'-Acetylphenyl trans-4-guanidomethycylohexanecarboxylate hydrochloride], for which, at chymotrypsin (0.05 mM, read-out: inhibited hydrolytic activity by chymotrypsin), the inhibition at 50 µM amounted to 50%.
As to `CCOc1ccccc1OC(=O)[C@H]1CC[C@H](CNC(=N)N)CC1` [Compound 4], at urokinase, the “Inhibition (%) Urokinase” value was determined as 84%. Besides, the “Inhibition (%) Thrombin” value on thrombin came to 35%. Moreover, the “Inhibition (%) Chymotrypsin” value on chymotrypsin worked out at 28%. Further, the “Inhibition (%) Trypsin” value at trypsin came out at 22%.
For the molecule `CN1[C@@H]2CC[C@H]1C[C@@H](OC(=O)C(CO)c1ccccc1)C2` (stereo partly shown) [Compound B, atropine sulfate, reference compound], the “Titratable Pepsin Output” value in the test on gastric secretion (3 hours) is 3.3 ± 0.9 mg; in the test with gastric secretion (6 hours) it was 9.7 ± 1.6 mg; in the test on gastric secretion (12 hours), 34.2 ± 1.4 mg. In addition, the “Titratable Pepsin Output % change” value in the test on gastric secretion (3 hours) amounted to 43.1%; in the test on gastric secretion (6 hours), 55.3%; in the test with gastric secretion (12 hours), 41.0%. For the same molecule, the “Ulcer Grade 0 (number of rats)” value with Shay ulcers (0=no lesion) is 2. Moreover, in the test on Shay ulcers (1=hemorrhagic suffusion), the “Ulcer Grade 1 (number of rats)” value is on record as 1. The “Ulcer Grade 2 (number of rats)” value with Shay ulcers (2=1-5 small ulcers (<3 mm)) is 0. Further, in the test with Shay ulcers (3=many small ulcers (more than 5) or 1 ulcer of marked size), the “Ulcer Grade 3 (number of rats)” value is recorded as 1. The “Ulcer Grade 4 (number of rats)” value in the test on Shay ulcers (4=many ulcers of marked size) came out at 3. Besides, the “Ulcer Grade 5 (number of rats)” value in the test on Shay ulcers (5=perforated ulcer) was 3.
Regarding `N=C(N)NC[C@H]1CC[C@H](C(=O)Oc2ccccc2C=O)CC1` [Example 19], the inhibition at 100 µM on urokinase stood at 56%.
With `COc1ccc(OC(=O)[C@H]2CC[C@H](CNC(=N)N)CC2)cc1` [Example 21], the inhibition at 100 µM at urokinase worked out at 52%.
As to `N=C(N)NC[C@H]1CC[C@H](C(=O)Oc2ccccc2C(=O)O)CC1` [Compound 10], in the test on acetic acid ulcers (300 mg/kg p.o. daily×10), the “Ulcer Grade 1 (number of rats)” value is 4, the “Ulcer Grade 2 (number of rats)” value came out at 2, the “Ulcer Grade 3 (number of rats)” value came out at 1 and the “Ulcer Grade 4 (number of rats)” value worked out at 0. Further, the “Ulcer Grade 5 (number of rats)” value with acetic acid ulcers (300 mg/kg p.o. daily×10) came to 2. For the same molecule, in the test on acetic acid ulcers (500 mg/kg p.o. daily×10), the “Ulcer Grade 1 (number of rats)” value was found to be 4, the “Ulcer Grade 2 (number of rats)” value stood at 3, the “Ulcer Grade 3 (number of rats)” value stood at 1 and the “Ulcer Grade 4 (number of rats)” value was 0. Also, in the test on acetic acid ulcers (500 mg/kg p.o. daily×10), the “Ulcer Grade 5 (number of rats)” value was determined as 0.
On to `Cc1c(C)c2c(c(C)c1OC(=O)[C@H]1CC[C@H](CNC(=N)N)CC1)CCC(C)(CCCC(C)CCCC(C)CCCC(C)C)O2` (stereo partly shown) [Example 1], for which the inhibition at 100 µM is about 50% at thrombin (0.1 mM, read-out: inhibited hydrolytic activity by thrombin) and about 50% at trypsin (0.1 mM, read-out: inhibited hydrolytic activity by trypsin).
As to `COc1ccccc1OC(=O)[C@H]1CC[C@H](CNC(=N)N)CC1` [Example 20], at urokinase, the inhibition at 100 µM came to 50%.
As for `N=C(N)NC[C@H]1CC[C@H](C(=O)Oc2ccccc2C(=O)Oc2ccccc2)CC1` [Compound 5], at urokinase, the “Inhibition (%) Urokinase” value came to 35%. Also, at thrombin, the “Inhibition (%) Thrombin” value was 34%. In addition, at chymotrypsin, the “Inhibition (%) Chymotrypsin” value was determined as 90%. Besides, the “Inhibition (%) Trypsin” value at trypsin was found to be 38%.
Turning to `CCOC(=O)c1ccccc1OC(=O)[C@H]1CC[C@H](CNC(=N)N)CC1` [Compound 9], the “Inhibition (%) Urokinase” value on urokinase is given as 50%. Moreover, the “Inhibition (%) Thrombin” value on thrombin came to 29%. The “Inhibition (%) Chymotrypsin” value at chymotrypsin is 60%. In addition, the “Inhibition (%) Trypsin” value at trypsin turned out to be 28%. For the same molecule, in the test with acetic acid ulcers (125 mg/kg p.o. daily×10), the “Ulcer Grade 1 (number of rats)” value is recorded as 11, the “Ulcer Grade 2 (number of rats)” value is 3, the “Ulcer Grade 3 (number of rats)” value is on record as 1 and the “Ulcer Grade 4 (number of rats)” value was 1. In addition, the “Ulcer Grade 5 (number of rats)” value with acetic acid ulcers (125 mg/kg p.o. daily×10) stood at 1. For the same molecule, in the test on acetic acid ulcers (250 mg/kg p.o. daily×10), the “Ulcer Grade 1 (number of rats)” value is 11, the “Ulcer Grade 2 (number of rats)” value was determined as 2, the “Ulcer Grade 3 (number of rats)” value is recorded as 1 and the “Ulcer Grade 4 (number of rats)” value amounted to 0. The “Ulcer Grade 5 (number of rats)” value with acetic acid ulcers (250 mg/kg p.o. daily×10) came to 0. In addition, in the test on acetic acid ulcers (500 mg/kg p.o. daily×10), the “Ulcer Grade 1 (number of rats)” value turned out to be 12, the “Ulcer Grade 2 (number of rats)” value came to 2, the “Ulcer Grade 3 (number of rats)” value is on record as 1 and the “Ulcer Grade 4 (number of rats)” value is recorded as 0. Besides, in the test with acetic acid ulcers (500 mg/kg p.o. daily×10), the “Ulcer Grade 5 (number of rats)” value came out at 0.
In the case of `COc1cc(C=O)ccc1OC(=O)[C@H]1CC[C@H](CNC(=N)N)CC1` [Compound 2], the “Inhibition (%) Urokinase” value at urokinase is reported as 72%. In addition, the “Inhibition (%) Thrombin” value at thrombin worked out at 51%. Moreover, the “Inhibition (%) Chymotrypsin” value at chymotrypsin amounted to 100%. Besides, on trypsin, the “Inhibition (%) Trypsin” value came to 61%. Besides, in the test with acetic acid ulcers (125 mg/kg p.o. daily×10), the “Ulcer Grade 1 (number of rats)” value is 9, the “Ulcer Grade 2 (number of rats)” value was 1, the “Ulcer Grade 3 (number of rats)” value is recorded as 2 and the “Ulcer Grade 4 (number of rats)” value was 2. In addition, in the test on acetic acid ulcers (125 mg/kg p.o. daily×10), the “Ulcer Grade 5 (number of rats)” value came out at 1. Besides, in the test with acetic acid ulcers (250 mg/kg p.o. daily×10), the “Ulcer Grade 1 (number of rats)” value is 14, the “Ulcer Grade 2 (number of rats)” value is 0, the “Ulcer Grade 3 (number of rats)” value is 3 and the “Ulcer Grade 4 (number of rats)” value came to 1. For the same molecule, the “Ulcer Grade 5 (number of rats)” value in the test with acetic acid ulcers (250 mg/kg p.o. daily×10) was found to be 0. In the test with acetic acid ulcers (500 mg/kg p.o. daily×10), the “Ulcer Grade 1 (number of rats)” value came to 12, the “Ulcer Grade 2 (number of rats)” value turned out to be 3, the “Ulcer Grade 3 (number of rats)” value is 2 and the “Ulcer Grade 4 (number of rats)” value turned out to be 0. The “Ulcer Grade 5 (number of rats)” value in the test with acetic acid ulcers (500 mg/kg p.o. daily×10) is 1.
